From ChEMBL document CHEMBL4706535, “The development of Coronavirus 3C-Like protease (3CL) inhibitors from 2010 to 2020” (Eur J Med Chem, 2020)

Key:
[1] = Inhibition of SARS-CoV-2 3c-like protease; set-up: species or system Severe acute respiratory syndrome coronavirus 2
[2] = Inhibition of SARS-CoV-2 3c-like protease expressed in Escherichia coli by FRET-based cleavage assay; set-up: species or system Severe acute respiratory syndrome coronavirus 2
[3] = Inhibition of SARS-CoV 3C-like protease (9970 to 10887 residues) expressed in Escherichia coli BL21(DE3) CodonPlus-RIL cells using Dabcyl-KTSAVLQSGFRKME-Edans fluorogenic peptide as substrate measured up to 60 mins by FRET method; set-up: species or system Severe acute respiratory syndrome-related coronavirus
[4] = Inhibition of SARS-CoV 3C-like protease (3241 to 3546 residues) expressed in Pichia pastoris GS115 using Dabcyl-KTSAVLQSGFRKME-Edans fluorogenic peptide as substrate measured for 18 mins by fluorescence method; set-up: species or system Severe acute respiratory syndrome-related coronavirus
[5] = Inhibition of SARS-CoV 3C-like protease (3241 to 3546 residues) expressed in Pichia pastoris GS115 using Dabcyl-KTSAVLQSGFRKME-Edans fluorogenic peptide as substrate measured for 18 mins by Lineweaver-burk plot based Dixon plot analysis; set-up: species or system Severe acute respiratory syndrome-related coronavirus
[6] = Inhibition of His-tagged SARS-CoV 3c-like protease using Abz-SVTLQSG-Tyr(NO2)R as substrate by fluorometric assay; set-up: species or system Severe acute respiratory syndrome-related coronavirus

Oc1cc(O)cc(Oc2c(O)cc(O)c3c2Oc2c(O)cc4oc5c(Oc6cc(O)cc(O)c6)c(O)cc(O)c5c4c2O3)c1 [PHLOROFUCOFUROECKOL A]
IC50 [1]: 16.7 µM

O=C[C@H](C[C@@H]1CCNC1=O)NC(=O)[C@H](Cc1cccc(F)c1)NC(=O)c1cc2ccccc2[nH]1
IC50 [2]: 0.04 µM

Oc1cc(O)c(Oc2cc(O)cc(O)c2Oc2cc(-c3c(O)cc(O)cc3O)c(O)cc2O)c(O)c1
IC50 [1]: 22.5 µM

COc1ccc(C(=O)/C=C/c2ccc(O)cc2)c(O)c1C/C=C(\C)CCC=C(C)C [XANTHOANGELOL F]
IC50 [3]: 34.1 µM

O=C(O[C@@H]1Cc2c(O)cc(O)cc2O[C@H]1c1cc(O)c(O)c(O)c1)c1cc(O)c(O)c(O)c1 [GALLOCATECHIN GALLATE]
IC50 [4]: 47 µM | Ki [5]: 25 µM

O=c1c(O)c(-c2ccc(O)c(O)c2)oc2cc(O)cc(O)c12 [QUERCETIN]
IC50 [4]: 73 µM

O=C(O[C@@H]1Cc2c(O)cc(O)cc2O[C@@H]1c1cc(O)c(O)c(O)c1)c1cc(O)c(O)c(O)c1 [EPIGALOCATECHIN GALLATE]
IC50 [4]: 73 µM

CC(=O)N[C@H](C(=O)N[C@H](C(=O)N[C@@H](CC(C)C)C(=O)N[C@@H](C[C@@H]1CCNC1=O)C(=O)Cn1[nH]c(=O)c2ccccc2c1=O)[C@@H](C)OCc1ccccc1)C(C)C
IC50 [6]: 2.7 µM

C/C(=C\Cc1c(O)ccc(C(=O)/C=C/c2ccc(O)cc2)c1O)CCC(O)C(C)C (stereo unspecified)
IC50 [3]: 22.2 µM

Oc1cc(O)cc(Oc2c(O)cc(O)c3c2Oc2c(O)cc(Oc4c(O)cc(O)cc4O)cc2O3)c1
IC50 [1]: 42.1 µM

Oc1cc(O)cc(Oc2c(O)cc(O)c3c2Oc2c(O)cc(O)cc2O3)c1 [ECKOL]
IC50 [1]: 8.8 µM

Oc1cc(O)cc(Oc2c(Oc3c(O)cc(O)cc3O)cc(O)c3c2Oc2c(O)cc(O)cc2O3)c1 [2-PHLOROECKOL]
IC50 [1]: 13.3 µM

CCC(Cc1c(OC)ccc(C(=O)/C=C/c2ccc(O)cc2)c1O)OO (stereo unspecified)
IC50 [3]: 11.4 µM

CC(=O)N[C@H](C(=O)N[C@H](C(=O)N[C@@H](CC(C)C)C(=O)N[C@@H](C[C@@H]1CCNC1=O)C(=O)Cn1[nH]c(=O)c2c([N+](=O)[O-])cccc2c1=O)[C@@H](C)OCc1ccccc1)C(C)C
IC50 [6]: 0.6 µM

Oc1cc(O)cc(Oc2c(O)cc(O)c3c2Oc2c(O)cc(Oc4c(O)cc(Oc5c(O)cc(O)c6c5Oc5c(O)cc(O)cc5O6)cc4O)cc2O3)c1 [DIECKOL]
IC50 [1]: 2.7 µM
